{"source": "ChEMBL document CHEMBL1158658", "about": "“Pyrrolizidine Alkaloids From Middle Eastern Plants” (1979)", "format_in_all_cases": "functional", "key": {"P388 [1]": {"tested_on": "P388", "test": "Antitumor activity against mouse P388 cells xenografted in male organism at 200 mg/kg relative to control"}, "P388 [2]": {"tested_on": "P388", "test": "Antitumor activity against mouse P388 cells xenografted in male organism at 100 mg/kg relative to control"}, "P388 [3]": {"tested_on": "P388", "test": "Antitumor activity against mouse P388 cells xenografted in male organism at 400 mg/kg relative to control"}, "P388 [4]": {"tested_on": "P388", "test": "Antitumor activity against mouse P388 cells xenografted in male organism at 800 mg/kg relative to control"}, "P388 [5]": {"tested_on": "P388", "test": "Antitumor activity against mouse P388 cells xenografted in female organism at 50 mg/kg relative to control"}, "P388 [6]": {"tested_on": "P388", "test": "Antitumor activity against mouse P388 cells xenografted in female organism at 200 mg/kg relative to control"}, "P388 [7]": {"tested_on": "P388", "test": "Antitumor activity against mouse P388 cells xenografted in female organism at 800 mg/kg relative to control"}, "P388 [8]": {"tested_on": "P388", "test": "Antitumor activity against mouse P388 cells xenografted in female organism at 100 mg/kg relative to control"}, "P388 [9]": {"tested_on": "P388", "test": "Antitumor activity against mouse P388 cells xenografted in female organism at 400 mg/kg relative to control"}}}
{"smiles": "CO[C@@H](C)[C@](O)(C(=O)OCC1=CC[N+]2([O-])CC[C@H](O)[C@@H]12)C(C)(C)O", "note": "(stereo not given in full)", "values": [{"measurement": "T/C", "setting": "P388 [1]", "value": 102}, {"measurement": "T/C", "setting": "P388 [2]", "value": 111}, {"measurement": "T/C", "setting": "P388 [3]", "value": 129}, {"measurement": "T/C", "setting": "P388 [4]", "value": 111}]}
{"smiles": "CC(C)[C@@](O)(C(=O)OCC1=CC[N+]2([O-])CC[C@H](O)[C@@H]12)[C@H](C)O", "note": "(stereo not given in full)", "values": [{"measurement": "T/C", "setting": "P388 [5]", "value": 109}, {"measurement": "T/C", "setting": "P388 [6]", "value": 118}, {"measurement": "T/C", "setting": "P388 [7]", "value": 145}, {"measurement": "T/C", "setting": "P388 [8]", "value": 113}, {"measurement": "T/C", "setting": "P388 [9]", "value": 138}]}
{"smiles": "CC(C)[C@](O)(C(=O)OCC1=CC[N+]2([O-])CC[C@@H](O)[C@@H]12)[C@H](C)O", "note": "(stereo not given in full) [INDICINE N-OXIDE]", "values": [{"measurement": "T/C", "setting": "P388 [1]", "value": 147}, {"measurement": "T/C", "setting": "P388 [6]", "value": 130}, {"measurement": "T/C", "setting": "P388 [7]", "value": 109}, {"measurement": "T/C", "setting": "P388 [9]", "value": 136}, {"measurement": "T/C", "setting": "P388 [3]", "value": 165}, {"measurement": "T/C", "setting": "P388 [4]", "value": 187}]}
